{"source": "patent US20260273020A1", "about": "“OBESTATIN FOR USE AS ANTINEOPLASTIC AGENT IN THE TREATMENT OF PANCREATIC CANCER” (SERVIZO GALEGO DE SAÚDE, priority 2023, published 2026)", "key": {"BxPC3 cells": {"system": "BxPC3 cells", "assay": "Proliferation assay, cell counting under chronic obestatin treatment", "type": "cell-based, human", "experimental": "(§1) PANC1 cell line was obtained from ECACC (87092802; ECACC, Wiltshire, UK). RWP1 and BxPC3 human pancreatic cancer cell lines were kindly provided by FX Real (Epithelial Carcinogenesis Group, Cancer Cell Biology Programme, Spanish National Cancer Research Centre-CNIO, Madrid, ES). In brief, PANC1 cells were cultured in DMEM (supplemented with 4.5 g/L glucose, 10% FBS, and 1% penicillin/streptomycin), RWP1 and BxPC3 cell lines were maintained in RPMI (supplemented with 10% FBS and 1% penicillin/streptomycin) and incubated in an atmosphere containing 5% CO2 at 37° C. These cells were periodically tested and resulted negative for mycoplasma contamination.\n(§2) For the analysis of proliferation the cells were seeded on 12-well plates at an amount of 50,000 cells per well and maintained for 24 h in culture media (see above) to allow attachment. The medium was completely removed and replaced with serum-free media for additional 24 h. Then, cells were treated or not with different doses of obestatin: mouse obestatin (corresponding to SEQ ID NO: 4) for KPC FC1242 and human obestatin (corresponding to SEQ ID NO: 1) for PANC1, RWP1 and BxPC3. The following treatments were used: 0% FBS as negative control, 10% FBS as positive control, 100 nM obestatin, 200 nM obestatin, 100 nM obestatin+10% FBS, and 200 nM obestatin+10% FBS. These treatments were administered every 24 h for three days. Twenty-four h after the last treatment, the cells were trypsinized and manually counted with a Neubauer camera.\n(§3) The total cells were calculated using the following equations counting 10 squares: […]\n(§4) In all cases, each experiment point was replicated eight times."}, "PANC1 cells": {"system": "PANC1 cells", "assay": "Proliferation assay, cell counting under chronic obestatin treatment", "type": "cell-based, human", "experimental": "as §1, §2, §3, §4"}, "RWP1 cells": {"system": "RWP1 cells", "assay": "Proliferation assay, cell counting under chronic obestatin treatment", "type": "cell-based, human", "experimental": "as §1, §2, §3, §4"}, "[1]": {"system": "Ki67 positive proliferative cells", "assay": "Ki67 immunohistochemistry of pancreatic tumours", "type": "in vivo, C57BL/6J mice", "conditions": "tumour area; obestatin 500 nmol/Kg/72 h", "experimental": "FIG. 4. (A) Analysis and quantification of Ki67 positive proliferative cells by immunohistochemistry in the pancreatic tumors of C57BL/6J mice (n=4) orthotopically injected with KPC FC1242 cells and treated with vehicle [NaCl, 0.9% (w/v)] or obestatin (500 nmol/Kg/72 h). Magnification: 4×. (B) Immunoblot analysis of pERK1/2(T202/Y204), ERK1/2, pAkt(S473), and Akt in tumoral pancreatic tissue. Results are expressed as fold of control of the non-treated injected mice [control; mean±SE (*, P<0.05)].\nMice were weighed at set times over the 15-day period. The sterilized surgical material was used for the tissue extraction. […] Pancreases were also measured with a scale (cm) and pictures were taken. • Histology—Pancreas samples for histology were fixed in 4% paraformaldehyde in PBS at room temperature overnight. […] The lysates were clarified by centrifugation (18,000×g, 15 min, 4° C.), and the protein concentration was quantified by the Quantipro™ BCA assay kit (Sigma-Aldrich, St. Louis, MO, US). […]\nEnVision™ peroxidase FLEX/HRP (Dako Agilent Technologies, Glostrup; DK) was employed as a detection system. […] Ki67 was analysed immunohistochemically. […] For Ki67 expression quantification in the samples, ten fields of the tumour representative DAB images were quantified by using the Fiji/Image J software."}, "[2]": {"conditions": "100 nM obestatin+10% FBS each 24 h for 72 h"}, "[3]": {"conditions": "human obestatin (SEQ ID NO: 1) 100 nM each 24 h for 72 h, serum-free"}}}
{"substance": "obestatin", "values": [{"measurement": "effect on FBS-mediated proliferation", "setting": "BxPC3 cells; [2]", "value": "significant inhibitory effect"}, {"measurement": "proliferation (number of cells)", "setting": "BxPC3 cells; [3]", "value": "does not activate the proliferation"}, {"measurement": "effect on FBS-mediated proliferation", "setting": "PANC1 cells; [2]", "value": "significant inhibitory effect"}, {"measurement": "proliferation (number of cells)", "setting": "PANC1 cells; [3]", "value": "does not activate the proliferation"}, {"measurement": "effect on FBS-mediated proliferation", "setting": "RWP1 cells; [2]", "value": "significant inhibitory effect"}, {"measurement": "proliferation (number of cells)", "setting": "RWP1 cells; [3]", "value": "does not activate the proliferation"}, {"measurement": "diminution in the number of Ki67 positive cells", "setting": "[1]", "value": "56.0±5.2", "unit": "%"}]}
